# According to PubChem BioAssay AID2060358 (Molecular Pharmacology Branch, DTP, NCI, 2025):
# Activity calls are given as the source filed them. How the source made its calls: active means viability on the fitted dose curve at most 10% of control; inactive means the rest.
# Tested on: 254851-301-R-J1-PDC spheroids, viability % test/control
# Test: Anticancer human tumor 254851-301-R-J1-PDC patient-derived colon carcinoma cell line growth inhibition [TAK]
# Conditions: spheroids with HUVEC and MSC; for IC50: curve of first compound; for viability, T/C: stronger effect = lower value
# Source text: Combinatorial screen of targeted agents with TAK-243 and ipatasertib in multi-cell type tumor spheroids
# A high-throughput screen of multi-cell type tumor spheroids was designed to identify active combinations of targeted small molecules and TAK-243 or ipatasertib. Complex spheroids include a stromal component modeled by human endothelial cells (HUVEC) and fibroblasts modeled by human mesenchymal stem cells (MSCs). The concentration ranges selected for each drug and investigational agent were based upon clinically achievable concentrations if the clinical Cmax of the agent was known.
# Compounds. The drugs and investigational agents: TAK-243 (785004), ipatasertib (767898), everolimus (733504), selumetinib (741078), bortezomib (756655), trametinib (758246), ixazomib (758254), vemurafenib (761431), dabrafenib (764134), sapanisertib (764658), alpelisib (765974), and copanlisib (816437), were obtained from the National Cancer Institute (NCI) Developmental Therapeutics Program Chemical Repository. The FDA-approved anticancer drug set is available from the NCI Developmental Therapeutics Program. […] The stock solutions were prepared in dimethyl sulfoxide (DMSO, Sigma-Aldrich, St. Louis, MO, cat. D2650) at 800-fold the tested concentration and stored at -70 degrees C prior to their use. All drugs and investigational agents were tested over a range starting from a high concentration at or near the clinical Cmax and decreasing in half-log increments. If the clinical Cmax for an agent had not been determined, the highest concentration tested was 10 microM.
# NCI60 Cell Culture. NCI60 cell lines were obtained from the NCI Developmental Therapeutics Program Tumor Repository. For each lot of cells, the Repository performed Applied Biosystems AmpFLSTR Identifiler testing with PCR amplification to confirm consistency with the published Identifier STR profile for each cell line. Cells were kept in continuous culture for no more than 20 passages. The optimal seeding densities for each of the cell lines at each time point assessed were determined prior to performing the concentration response studies. Briefly, the NCI60 human tumor lines were grown as monolayers in RPMI 1640 medium supplemented with 10% FBS and 2 mmol/L L-glutamine.
# An additional 2 lines were from the NCI60 cell line panel including melanomas, MALME-3M and SK-MEL-2. Pooled donor human umbilical vein endothelial cells (HUVEC, Lonza, cat. CC-2519) and human mesenchymal stem cells (hMSC, Lonza, cat. PT-2501) were purchased from Lonza (Walkersville, MD).
# PDMR cell lines were grown in complete medium (DC medium): Dulbecco's modified Eagle's medium (DMEM)/F12 supplemented with 5% fetal bovine serum (FBS), 2 mM L-glutamine, 100 U/mL penicillin and 100 µg/ml streptomycin, 0.4 µg/ml hydrocortisone, 10 ng/ml epidermal growth factor (EGF) recombinant human protein, 24 µg/mL adenine, and 0.1 mg/mL primocin. During culture from frozen stock vials, PDMR cells were cultured in the same medium containing 10 µM Y-27632 (see Table 3). The PDCs were cultured in complete DMEM/F12 media without 10 microM Y-27632 dihydrochloride for at least two passages prior to the screen. The pooled donor HUVEC and hMSC were cultured in endothelial cell growth medium 2 (PromoCell, Heidelberg, Germany, cat. C-22011) and mesenchymal stem cell growth medium 2 (PromoCell, cat. C-28009), respectively. For all experiments, HUVEC and hMSC were used at passages </=5.
# For the pre-screen, cell seeding densities were determined from a titration spanning the range from 5,000 to 313 cells per well. The mct-spheroids including 60% malignant cells, 25% HUVEC and 15% MSC dispensed as a mixture into U-bottom Ultra-Low Attachment 384-well plates (Corning, NY)
# High-throughput Drug Combination Screening.
# Prior to their inoculation into 384-well plates, malignant cells, HUVEC, and hMSC were removed from T flasks using TrypLE express (Thermo Fisher Scientific, cat. 12605036) and harvested by centrifugation for 5 min at 233 x g. […]
# 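Wherever IC50 is given: spheroids exposed to drugs for seven days before viability readout.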
# 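Wherever viability, T/C is given: spheroids exposed to drugs for seven days before viability readout.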
smiles,measurement,setting,value
COC1CC2CCC(C)C(O)(O2)C(=O)C(=O)N2CCCCC2C(=O)OC(C(C)CC2CCC(OCCO)C(OC)C2)CC(=O)C(C)C=C(C)C(O)C(OC)C(=O)C(C)CC(C)C=CC=CC=C1C (stereo not given) + CC(C)NCC(C(=O)N1CCN(c2ncnc3c2C(C)CC3O)CC1)c1ccc(Cl)cc1,IC50,second compound 0.3 µM,> 100 nM
same,IC50,second compound 0.949 µM,> 100 nM
same,IC50,second compound 3 µM,> 100 nM
same,IC50,second compound 9.49 µM,> 100 nM
same,IC50,second compound 30 µM,> 100 nM
same,"viability, T/C","second compound 0.3 µM, first compound 0.000316 µM",108%
same,"viability, T/C","second compound 0.3 µM, first compound 0.001 µM",117%
same,"viability, T/C","second compound 0.3 µM, first compound 0.00316 µM",99.9%
same,"viability, T/C","second compound 0.3 µM, first compound 0.01 µM",99.2%
same,"viability, T/C","second compound 0.3 µM, first compound 0.0316 µM",96.8%
same,"viability, T/C","second compound 0.3 µM, first compound 0.1 µM",91.7%
same,"viability, T/C","second compound 0.949 µM, first compound 0.000316 µM",115%
same,"viability, T/C","second compound 0.949 µM, first compound 0.001 µM",110%
same,"viability, T/C","second compound 0.949 µM, first compound 0.00316 µM",100%
same,"viability, T/C","second compound 0.949 µM, first compound 0.01 µM",104%
same,"viability, T/C","second compound 0.949 µM, first compound 0.0316 µM",88.1%
same,"viability, T/C","second compound 0.949 µM, first compound 0.1 µM",91.4%
same,"viability, T/C","second compound 3 µM, first compound 0.000316 µM",102%
same,"viability, T/C","second compound 3 µM, first compound 0.001 µM",112%
same,"viability, T/C","second compound 3 µM, first compound 0.00316 µM",97%
same,"viability, T/C","second compound 3 µM, first compound 0.01 µM",94.2%
same,"viability, T/C","second compound 3 µM, first compound 0.0316 µM",92.1%
same,"viability, T/C","second compound 3 µM, first compound 0.1 µM",95.3%
same,"viability, T/C","second compound 9.49 µM, first compound 0.000316 µM",90.7%
same,outcome,"second compound 9.49 µM, first compound 0.001 µM",inactive
same,"viability, T/C","second compound 9.49 µM, first compound 0.00316 µM",98%
same,"viability, T/C","second compound 9.49 µM, first compound 0.01 µM",95%
same,"viability, T/C","second compound 9.49 µM, first compound 0.0316 µM",96.2%
same,"viability, T/C","second compound 9.49 µM, first compound 0.1 µM",85.1%
same,"viability, T/C","second compound 30 µM, first compound 0.000316 µM",82.7%
same,"viability, T/C","second compound 30 µM, first compound 0.001 µM",95.2%
same,"viability, T/C","second compound 30 µM, first compound 0.00316 µM",86.4%
same,"viability, T/C","second compound 30 µM, first compound 0.01 µM",77%
same,"viability, T/C","second compound 30 µM, first compound 0.0316 µM",76.4%
same,"viability, T/C","second compound 30 µM, first compound 0.1 µM",77.2%
